≈ marks a conversion by molar mass, not a printed value.
How the values were obtained:
Escherichia coli [1] = assay: Antibacterial activity against Escherichia coli ATCC 11230 after 24 hrs by dilution method; format: functional
Staphylococcus aureus [2] = assay: Antibacterial activity against Staphylococcus aureus ATCC 6538 after 24 hrs by dilution method; format: functional
Klebsiella pneumoniae [3] = assay: Antibacterial activity against Klebsiella pneumoniae UC57 after 24 hrs by dilution method; format: functional
Pseudomonas aeruginosa [4] = assay: Antibacterial activity against Pseudomonas aeruginosa ATCC 27853 after 24 hrs by dilution method; format: functional
Proteus vulgaris [5] = assay: Antibacterial activity against Proteus vulgaris ATCC 8427 by after 24 hrs dilution method; format: functional
Bacillus cereus [6] = assay: Antibacterial activity against Bacillus cereus ATCC 7064 after 24 hrs by dilution method; format: functional
[7] = test system: Mycolicibacterium smegmatis; assay: Antibacterial activity against Mycobacterium smegmatis CCM 2067 after 24 hrs by dilution method; format: functional
Listeria monocytogenes [8] = assay: Antibacterial activity against Listeria monocytogenes ATCC 15313 after 24 hrs by dilution method; format: functional
Micrococcus luteus [9] = assay: Antibacterial activity against Micrococcus luteus La 2971 after 24 hrs by dilution method; format: functional
Escherichia coli [10] = assay: Antibacterial activity against Escherichia coli ATCC 11230 at 5 ug after 24 hrs by disk diffusion method; format: functional; settings: ATCC 11230, 24 h, read-out: IZ
Staphylococcus aureus [11] = assay: Antibacterial activity against Staphylococcus aureus ATCC 6538 at 5 ug after 24 hrs by disk diffusion method; format: functional; settings: ATCC 6538, 24 h, read-out: IZ
Klebsiella pneumoniae [12] = assay: Antibacterial activity against Klebsiella pneumoniae UC57 at 5 ug after 24 hrs by disk diffusion method; format: functional; settings: read-out: IZ
Pseudomonas aeruginosa [13] = assay: Antibacterial activity against Pseudomonas aeruginosa ATCC 27853 at 5 ug after 24 hrs by disk diffusion method; format: functional; settings: ATCC 27853, 24 h, read-out: IZ
Proteus vulgaris [14] = assay: Antibacterial activity against Proteus vulgaris ATCC 8427 at 5 ug after 24 hrs by disk diffusion method; format: functional; settings: ATCC 8427, 24 h, read-out: IZ
Bacillus cereus [15] = assay: Antibacterial activity against Bacillus cereus ATCC 7064 at 5 ug after 24 hrs by disk diffusion method; format: functional; settings: ATCC 7064, 24 h, read-out: IZ
[16] = test system: Mycolicibacterium smegmatis; assay: Antibacterial activity against Mycobacterium smegmatis CCM 2067 at 5 ug after 24 hrs by disk diffusion method; format: functional; settings: CCM 2067, 24 h, read-out: IZ
Listeria monocytogenes [17] = assay: Antibacterial activity against Listeria monocytogenes ATCC 15313 at 5 ug after 24 hrs by disk diffusion method; format: functional; settings: ATCC 15313, 24 h, read-out: IZ
Micrococcus luteus [18] = assay: Antibacterial activity against Micrococcus luteus La 2971 at 5 ug by disk diffusion method; format: functional; settings: read-out: IZ
Escherichia coli [19] = assay: Antibacterial activity against Escherichia coli ATCC 11230 at 30 ug after 24 hrs by disk diffusion method; format: functional; settings: ATCC 11230, 24 h, read-out: IZ
Staphylococcus aureus [20] = assay: Antibacterial activity against Staphylococcus aureus ATCC 6538 at 30 ug after 24 hrs by disk diffusion method; format: functional; settings: ATCC 6538, 24 h, read-out: IZ
Klebsiella pneumoniae [21] = assay: Antibacterial activity against Klebsiella pneumoniae UC57 at 30 ug after 24 hrs by disk diffusion method; format: functional; settings: read-out: IZ
Pseudomonas aeruginosa [22] = assay: Antibacterial activity against Pseudomonas aeruginosa ATCC 27853 at 30 ug after 24 hrs by disk diffusion method; format: functional; settings: ATCC 27853, 24 h, read-out: IZ
Proteus vulgaris [23] = assay: Antibacterial activity against Proteus vulgaris ATCC 8427 at 30 ug after 24 hrs by disk diffusion method; format: functional; settings: ATCC 8427, 24 h, read-out: IZ
Bacillus cereus [24] = assay: Antibacterial activity against Bacillus cereus ATCC 7064 at 30 ug after 24 hrs by disk diffusion method; format: functional; settings: ATCC 7064, 24 h, read-out: IZ
[25] = test system: Mycolicibacterium smegmatis; assay: Antibacterial activity against Mycobacterium smegmatis CCM 2067 at 30 ug after 24 hrs by disk diffusion method; format: functional; settings: CCM 2067, 24 h, read-out: IZ
Listeria monocytogenes [26] = assay: Antibacterial activity against Listeria monocytogenes ATCC 15313 at 30 ug after 24 hrs by disk diffusion method; format: functional; settings: ATCC 15313, 24 h, read-out: IZ
Micrococcus luteus [27] = assay: Antibacterial activity against Micrococcus luteus La 2971 at 30 ug by disk diffusion method; format: functional; settings: read-out: IZ
Candida albicans [28] = assay: Antifungal activity against Candida albicans ATCC 10231 after 48 hrs by dilution method; format: functional
Kluyveromyces marxianus [29] = assay: Antifungal activity against Kluyveromyces fragilis NRRL 2415 after 48 hrs by dilution method; format: functional
Rhodotorula mucilaginosa [30] = assay: Antifungal activity against Rhodotorula rubra DSM 70403 after 48 hrs by dilution method; format: functional
[31] = test system: Hanseniaspora guilliermondii; assay: Antifungal activity against Hanseniaspora guilliermondii DSM 3432 after 48 hrs by dilution method; format: functional
Debaryomyces hansenii [32] = assay: Antifungal activity against Debaryomyces hansenii DSM 70238 after 48 hrs by dilution method; format: functional
Kluyveromyces marxianus [33] = assay: Antifungal activity against Kluyveromyces fragilis NRRL 2415 at 100 ug after 72 hrs by disk diffusion method; format: functional, organism-based
Rhodotorula mucilaginosa [34] = assay: Antifungal activity against Rhodotorula rubra DSM 70403 at 100 ug after 72 hrs by disk diffusion method; format: functional, organism-based
[35] = test system: Hanseniaspora guilliermondii; assay: Antifungal activity against Hanseniaspora guilliermondii DSM 3432 at 100 ug after 72 hrs by disk diffusion method; format: functional, organism-based
Debaryomyces hansenii [36] = assay: Antifungal activity against Debaryomyces hansenii DSM 70238 at 100 ug after 72 hrs by disk diffusion method; format: functional, organism-based
Rhodotorula mucilaginosa [37] = assay: Antifungal activity against Rhodotorula rubra DSM 70403 after 72 hrs by disk diffusion method; format: functional
Micrococcus luteus [38] = assay: Antibacterial activity against Micrococcus luteus La 2971 after 24 hrs by disk diffusion method; format: functional
Candida albicans [39] = assay: Antifungal activity against Candida albicans ATCC 10231 after 72 hrs by disk diffusion method; format: functional
Kluyveromyces marxianus [40] = assay: Antifungal activity against Kluyveromyces fragilis NRRL 2415 after 72 hrs by disk diffusion method; format: functional
[41] = test system: Hanseniaspora guilliermondii; assay: Antifungal activity against Hanseniaspora guilliermondii DSM 3432 after 72 hrs by disk diffusion method; format: functional
Debaryomyces hansenii [42] = assay: Antifungal activity against Debaryomyces hansenii DSM 70238 after 72 hrs by disk diffusion method; format: functional
Escherichia coli [43] = assay: Antibacterial activity against Escherichia coli ATCC 11230 after 24 hrs by disk diffusion method; format: functional
Staphylococcus aureus [44] = assay: Antibacterial activity against Staphylococcus aureus ATCC 6538 after 24 hrs by disk diffusion method; format: functional
Klebsiella pneumoniae [45] = assay: Antibacterial activity against Klebsiella pneumoniae UC57 after 24 hrs by disk diffusion method; format: functional
Pseudomonas aeruginosa [46] = assay: Antibacterial activity against Pseudomonas aeruginosa ATCC 27853 after 24 hrs by disk diffusion method; format: functional
Proteus vulgaris [47] = assay: Antibacterial activity against Proteus vulgaris ATCC 8427 after 24 hrs by disk diffusion method; format: functional
Bacillus cereus [48] = assay: Antibacterial activity against Bacillus cereus ATCC 7064 after 24 hrs by disk diffusion method; format: functional
[49] = test system: Mycolicibacterium smegmatis; assay: Antibacterial activity against Mycobacterium smegmatis CCM 2067 after 24 hrs by disk diffusion method; format: functional
Listeria monocytogenes [50] = assay: Antibacterial activity against Listeria monocytogenes ATCC 15313 after 24 hrs by disk diffusion method; format: functional

Compound: GENTAMICIN
- MIC (Escherichia coli [1]): 6.25 µg/mL
- MIC (Staphylococcus aureus [2]): 25 µg/mL
- MIC (Klebsiella pneumoniae [3]): 6.25 µg/mL
- MIC (Pseudomonas aeruginosa [4]): 6.25 µg/mL
- MIC (Proteus vulgaris [5]): 6.25 µg/mL
- MIC (Bacillus cereus [6]): 6.25 µg/mL
- MIC [7]: 12.5 µg/mL
- MIC (Listeria monocytogenes [8]): 12.5 µg/mL
- MIC (Micrococcus luteus [9]): 25 µg/mL

Compound: CC1COc2c(N3CCN(C)CC3)c(F)cc3c(=O)c(C(=O)O)cn1c23 (stereo not drawn) [OFLOXACIN]
- zone of inhibition at 5 µg/disc (Escherichia coli [10]): 30 mm
- zone of inhibition at 5 µg/disc (Staphylococcus aureus [11]): 24 mm
- zone of inhibition at 5 µg/disc (Klebsiella pneumoniae [12]): 28 mm
- zone of inhibition at 5 µg/disc (Pseudomonas aeruginosa [13]): 44 mm
- zone of inhibition at 5 µg/disc (Proteus vulgaris [14]): 28 mm
- zone of inhibition at 5 µg/disc (Bacillus cereus [15]): 30 mm
- zone of inhibition at 5 µg/disc [16]: 32 mm
- zone of inhibition at 5 µg/disc (Listeria monocytogenes [17]): 30 mm
- zone of inhibition at 5 µg/disc (Micrococcus luteus [18]): 28 mm

Compound: CN(C)[C@@H]1C(O)=C(C(N)=O)C(=O)[C@@]2(O)C(O)=C3C(=O)c4c(O)cccc4[C@@](C)(O)[C@H]3C[C@@H]12 [TETRACYCLINE]
- zone of inhibition at 30 µg/disc (Escherichia coli [19]): 28 mm
- zone of inhibition at 30 µg/disc (Staphylococcus aureus [20]): 26 mm
- zone of inhibition at 30 µg/disc (Klebsiella pneumoniae [21]): 30 mm
- zone of inhibition at 30 µg/disc (Pseudomonas aeruginosa [22]): 34 mm
- zone of inhibition at 30 µg/disc (Proteus vulgaris [23]): 26 mm
- zone of inhibition at 30 µg/disc (Bacillus cereus [24]): 25 mm
- zone of inhibition at 30 µg/disc [25]: 24 mm
- zone of inhibition at 30 µg/disc (Listeria monocytogenes [26]): 28 mm
- zone of inhibition at 30 µg/disc (Micrococcus luteus [27]): 2 mm

Compound: CN[C@H](CC(C)C)C(=O)N[C@H]1C(=O)N[C@@H](CC(N)=O)C(=O)N[C@H]2C(=O)N[C@H]3C(=O)N[C@H](C(=O)N[C@H](C(=O)O)c4cc(O)cc(O)c4-c4cc3ccc4O)[C@H](O)c3ccc(c(Cl)c3)Oc3cc2cc(c3O[C@@H]2O[C@H](CO)[C@@H](O)[C@H](O)[C@H]2O[C@H]2C[C@](C)(N)[C@H](O)[C@H](C)O2)Oc2ccc(cc2Cl)[C@H]1O [VANCOMYCIN]
- zone of inhibition at 30 µg/disc (Escherichia coli [19]): 22 mm
- zone of inhibition at 30 µg/disc (Staphylococcus aureus [20]): 13 mm
- zone of inhibition at 30 µg/disc (Klebsiella pneumoniae [21]): 22 mm
- zone of inhibition at 30 µg/disc (Pseudomonas aeruginosa [22]): 10 mm
- zone of inhibition at 30 µg/disc (Proteus vulgaris [23]): 20 mm
- zone of inhibition at 30 µg/disc (Bacillus cereus [24]): 18 mm
- zone of inhibition at 30 µg/disc [25]: 20 mm
- zone of inhibition at 30 µg/disc (Listeria monocytogenes [26]): 26 mm
- zone of inhibition at 30 µg/disc (Micrococcus luteus [27]): 34 mm

Compound: NYSTATIN
- MIC (Candida albicans [28]): 3.12 µg/mL
- MIC (Kluyveromyces marxianus [29]): 6.25 µg/mL
- MIC (Rhodotorula mucilaginosa [30]): 6.25 µg/mL
- MIC [31]: 3.12 µg/mL
- MIC (Debaryomyces hansenii [32]): 12.5 µg/mL
- inhibition zone (IZ) (Kluyveromyces marxianus [33]): 18 mm
- inhibition zone (IZ) (Rhodotorula mucilaginosa [34]): 18 mm
- inhibition zone (IZ) [35]: 21 mm
- inhibition zone (IZ) (Debaryomyces hansenii [36]): 16 mm

Compound: c1ccc2[nH]c(CCSSCCc3nc4ccccc4[nH]3)nc2c1
- inhibition zone (IZ) (Rhodotorula mucilaginosa [37]): 12 mm
- inhibition zone (IZ) (Micrococcus luteus [38]): 12 mm
- inhibition zone (IZ) (Candida albicans [39]): 14 mm
- inhibition zone (IZ) (Kluyveromyces marxianus [40]): 15 mm
- inhibition zone (IZ) [41]: 12 mm
- inhibition zone (IZ) (Debaryomyces hansenii [42]): 11 mm
- MIC (Escherichia coli [1]; ATCC 11230, 24 h): 50 µg/mL (≈ 141 µM)
- MIC (Staphylococcus aureus [2]; ATCC 6538, 24 h): 12.5 µg/mL (≈ 35.3 µM)
- MIC (Klebsiella pneumoniae [3]): 50 µg/mL (≈ 141 µM)
- inhibition zone (IZ) (Escherichia coli [43]): 12 mm
- inhibition zone (IZ) (Staphylococcus aureus [44]): 14 mm
- inhibition zone (IZ) (Klebsiella pneumoniae [45]): 11 mm
- inhibition zone (IZ) (Pseudomonas aeruginosa [46]): 11 mm
- inhibition zone (IZ) (Proteus vulgaris [47]): 14 mm
- inhibition zone (IZ) (Bacillus cereus [48]): 10 mm
- inhibition zone (IZ) [49]: 13 mm
- inhibition zone (IZ) (Listeria monocytogenes [50]): 13 mm
- MIC (Pseudomonas aeruginosa [4]; ATCC 27853, 24 h): 50 µg/mL (≈ 141 µM)
- MIC (Proteus vulgaris [5]; ATCC 8427, 24 h): 12.5 µg/mL (≈ 35.3 µM)
- MIC (Bacillus cereus [6]; ATCC 7064, 24 h): 100 µg/mL (≈ 282 µM)
- MIC ([7]; CCM 2067, 24 h): 12.5 µg/mL (≈ 35.3 µM)
- MIC (Listeria monocytogenes [8]; ATCC 15313, 24 h): 12.5 µg/mL (≈ 35.3 µM)
- MIC (Micrococcus luteus [9]): 25 µg/mL (≈ 70.5 µM)
- MIC (Candida albicans [28]; ATCC 10231, 48 h): 12.5 µg/mL (≈ 35.3 µM)
- MIC (Kluyveromyces marxianus [29]; NRRL 2415, 48 h): 6.25 µg/mL (≈ 17.6 µM)
- MIC (Rhodotorula mucilaginosa [30]; DSM 70403, 48 h): 25 µg/mL (≈ 70.5 µM)
- MIC ([31]; DSM 3432, 48 h): 12.5 µg/mL (≈ 35.3 µM)
- MIC (Debaryomyces hansenii [32]; DSM 70238, 48 h): 25 µg/mL (≈ 70.5 µM)
